# Assay results from patent publication US11191811B2, “Osteocalcin as a treatment for frailty associated with aging” (THE TRUSTEES OF COLUMBIA UNIVERSITY IN THE CITY OF NEW YORK, priority 2014, dated 2021).
# Entries after “also recorded” stand apart in the source; their conditions may differ.
# How the values were obtained:
# Gprc6a−/− myotubes [1] = assay: cAMP accumulation in myotubes; format: cell-based, mouse; settings: Ocn 10 ng/ml
# Protocol: FIG. 25. Osteocalcin signaling in myofibers is necessary for muscle function during exercise. (A) Serum total osteocalcin (Ocn) and insulin (Ins) levels measured in mice at rest or after a single bout of exercise (40 min, 30 cm/s running on a treadmill) (n=7 per group). (B) Serum uncarboxylated (uncarb)-Ocn levels measured in mice at rest and 0, 1, 2 and 4 hours after a single bout of exercise (40 min, 30 cm/s running on a treadmill) (n=7 per group). (C) Serum CTX levels in mice at rest and after a single bout of exercise (n=7 per group). (D) Performance during endurance exercise of 3 month-old female Ocn-deficient and WT littermates (n=8-10 per group). (E) Performance during endurance exercise of 3 month-old Ocn f/f and OcnOsb−/− littermates (n=3-5 per group). (F) Performance during endurance exercise of 3 month-old female Gprc6a-deficient and WT littermates (n=8-10 per group). (G) Gprc6a expression in various tissues. (H) Gprc6a expression in EDL and soleus muscles (n=3). (I) In situ hybridization analysis of Gprc6a expression in soleus muscle. (J) Gprc6a expression in WT and Ocn−/− muscles (n=6 per group). […]
# Serum osteocalcin, PINP, CTX, and insulin levels were measured using ELISA assays. Blood glucose level was measured using an Accu-Check glucometer. Urine 3-MHT was measured as previously described (Aranibar et al., 2011, Anal. Biochem. 410:84-91). […]
# Gprc6a−/− myotubes [2] = assay: Gene expression (qPCR) in myotubes treated with Ocn; format: cell-based, mouse
# Protocol: Serum osteocalcin, PINP, CTX, and insulin levels were measured using ELISA assays. Blood glucose level was measured using an Accu-Check glucometer. Urine 3-MHT was measured as previously described (Aranibar et al., 2011, Anal. Biochem. 410:84-91). Determination of cAMP accumulation was performed using a commercial kit (R&D). For gene expression, 1 μg of total RNA was reverse transcribed into cDNA. qPCR analyses were performed using a SYBER green master mix (Applied Biosciences) and a CFX-Connect real time PCR (Bio-Rad). Relative expression levels of each gene were normalized to that of Hprt or Gapdh. For in situ hybridization, muscle was frozen in liquid N2-cooled methylbutane. Samples were sectioned at 10 μm using a cryostat. In situ hybridization was performed with a DIG-labeled riboprobe as previously described (Oury et al., 2011, Cell 144:796-809).
# Culture of skeletal muscle myoblasts from 7 day-old mice was performed as described (Gharaibeh et al., 2008, Nature Protocols 3:1501-1509). Myoblasts were differentiated into myotubes for 3-4 days in a medium containing 5% horse serum. Muscle fibers were isolated from flexor digitorum brevis muscle. Muscles were dissected with DMEM 2% collagenase for 2 hours at 37° C., in a 5% CO2 incubator. Muscle fibers were disaggregated from the tissue using a wide bore pipet and plated in matrigel-coated plates at approximately 50% confluence. […]
# muscle = assay: S6K phosphorylation and protein synthesis; settings: FIG. 23; for protein synthesis: in muscle
# Source text: FIG. 23. Osteocalcin promotes S6K phosphorylation and protein synthesis.
# It has been shown that in muscle osteocalcin favors glucose uptake, glycolysis, fatty acid oxidation, and protein synthesis.
# muscles of WT mice = assay: Western blot of Akt, AMPK and HSL phosphorylation in muscles of WT mice given Ocn; format: in vivo, mouse
# Protocol: FIG. 31. Osteocalcin treatment increases muscle function in young and old WT mice. (A-B) Performance during endurance exercise of 3 month-old WT, Gprc6af/f and Gprc6aMck−/− female mice treated with Ocn (n=6-10 per group). (C) Performance during endurance exercise of 12 and 15 month-old WT female mice treated with Ocn (n=6-10 per group). (D) Western blot analysis of Akt phosphorylation (Ser473) in muscles of WT mice injected with Ocn (500 ng/g) after a single bout of exercise. (E) Western blot analysis of AMPK phosphorylation ([…]) in muscles of WT mice injected with Ocn (500 ng/g) after a single bout of exercise. (F) Western blot analysis of HSL phosphorylation (Ser563) in muscles of WT mice injected with Ocn (500 ng/g) after a single bout of exercise. (G) Uptake of ^3H-2-DG in glycolytic (Gly—white quadriceps) and oxidative (Ox—red quadriceps) muscles after a single bout of exercise in 15 month-old WT mice receiving Ocn before running (n=5 per group). (H) Performance during endurance exercise of 10 month-old WT mice receiving Ocn for 28 days (n=7 per group). (I) Expression of Cd36, Fatp1 and Cpt1b in gastrocnemius of 10 month-old WT mice receiving Ocn for 28 days (n=7 per group). (J) Western blot analysis of Akt phosphorylation (Ser473) in muscles of WT mice receiving Ocn for 28 days (n=7 per group). (K) Schematic representation of how osteocalcin signaling in myofibers and IL-6 cooperate to increase exercise capacity.
# To determine if osteocalcin has the same ability in older mice, 12 and 15 month-old mice that have low circulating osteocalcin levels were injected prior to running with 500 ng/g of body weight of osteocalcin in order to raise their circulating levels substantially. […] This was due to an increase in the phosphorylation of Akt, AMPK and HSL, as well as in glucose uptake, that occurred to a greater extent in oxidative muscles that express Gprc6a at the highest level, than in glycolytic muscles (FIG. 31C-F). Whether chronic delivery of osteocalcin through mini-pumps (90 ng/hour) for 28 days would increase muscle function in 9 month old mice that have the lowest circulating osteocalcin levels was also tested. […] This improved ability to perform exercise was caused in part by an increase in the expression in muscle of the fatty acid transporter Fatp1 and an activation of the Akt pathway (FIG. 31H-).
# wild type mice = assay: Glucose tolerance test after subcutaneous infusion; format: in vivo, mouse; settings: 0.3 or 3 ng/hour subcutaneously for 14 days, 120 minutes following glucose injection
# Protocol: FIG. 2. Osteocalcin subcutaneous infusion increases glucose tolerance in wild-type mice. Wild-type mice were infused subcutaneously with indicated doses of recombinant osteocalcin or PBS for 14 days before receiving a single injection of glucose. Blood glucose was measured thereafter at indicated times.
# For glucose tolerance test (GTT), glucose (2 g/kg body weight (BW)) was injected intraperitoneally (IP) after an overnight fast and blood glucose was monitored using blood glucose strips and the Accu-Check glucometer (Roche) at indicated times.
# In another in vivo experiment, the effect of uncarboxylated osteocalcin on glucose tolerance was investigated. Wild type mice were infused subcutaneously with either 0.3 or 3 ng/hour doses of recombinant uncarboxylated osteocalcin or PBS for 14 days before receiving a single injection of glucose. Blood glucose was measured thereafter at the indicated times.
# [3] = WT mice injected with Ocn (500 ng/g), after a single bout of exercise, listed as osteocalcin
substance,measurement,setting,value
"uncarboxylated osteocalcin: Recombinant uncarboxylated mouse osteocalcin, bacterially produced, purified on glutathione beads and cleaved from the GST subunit by thrombin (YLGASVPSPDPLEPTREQCELNPACDELSDQYGLKTAYKRIYGITI)",cAMP production,Gprc6a−/− myotubes [1],did not increase
same,expression of Il6,Gprc6a−/− myotubes [2],not
same,S6K phosphorylation,muscle,promotes
same,protein synthesis,muscle; listed as Osteocalcin,promotes
same,protein synthesis,muscle; listed as osteocalcin,favors
same,phosphorylation of AMPK in muscle,"muscles of WT mice; WT mice injected with Ocn (500 ng/g), after a single bout of exercise",increase
same,phosphorylation of Akt in muscle,"muscles of WT mice; WT mice injected with Ocn (500 ng/g), after a single bout of exercise, listed as Osteocalcin",induced
same,phosphorylation of Akt in muscle,muscles of WT mice; [3],increase
same,phosphorylation of HSL (Ser563) in muscle,muscles of WT mice; [3],enhanced; also recorded: increase
same,Akt pathway in muscle,muscles of WT mice; mini-pumps 90 ng/hour for 28 days,activation
same,glucose tolerance,wild type mice,increased
same,glucose tolerance,wild type mice; listed as Osteocalcin,increases
